Test results from US10729659B2, “Nanogel-mediated drug delivery” (The Cleveland Clinic Foundation, priority 2012, dated 2020).

Key:
MDA-MB 231 cells = experiment: Physical characterization of exosomes from DAC treated cells; type: cell-based, human; conditions: exosomes from cells treated with DAC 0.5 μM, 24 h
Experimental: Exosome isolation protocol: MDA-MB 231 cells were grown in DMEM supplemented with 10% fetal bovine serum (FBS), and 1% antibiotics. Prior to use in cell culture; the cell culture medium was depleted of endogenous exosomes present in FBS. Exosomes depleted media were prepared by 16 h of ultracentrifugation of cell culture medium supplemented with 50% FBS at 100, 000×g and filtered through 0.2 μm filter. Through out this process sterile conditions were maintained.
To isolate the exosomes from cells treated with DAC, cells were cultured in 10 cell culture dishes (150×25 mm), When the cells were at 70% confluency, the cells were washed with 1×PBS, re-fed with endogenous exosomes depleted media containing DAC (0.5 μM) and incubated for 24 h. Because of small production of exosomes from cultured cells, culture media from all the DAC treated plates were pooled for exosome isolation. All the exosome isolation procedures were done at 4° C. Culture supernatants were first centrifuged at 300×g for 10 min to pellet the cells. To remove the dead cells, supernatant was centrifuged at 2,000×g for 15 min (Sorvall Legend RTcentrifuge, Thermo Electron Corp. Waltham, Mass.). Supernatant was pipetted off and transferred to pre-cooled polycarbonate tubes appropriate for 50.1Ti fixed angle ultracentrifugation rotor (Beckman Coulter Inc., Fullerton, Calif., USA) and centrifuged at 10,000×g for 30 min to remove cell debris. Pellet was discarded and supernatant was aliquoted to several ultracentrifuge tubes and centrifuged at 110,000×g for 70 min to pellet exosomes. Supernatant was discarded. The pellet in each tube was re-suspended in 1 mL PBS and pooled in to single ultracentrifuge tube and centrifuged at 110,000×g for 70 min. […]
Five micro-liter of PFA fixed exosome suspension was dropped on 200 mesh formvar—carbon coated EM grid (grid size: 97 μm) (TEDPELLA, Redding, Calif., USA) and exosomes were allowed to adsorb to the grids by drying the suspension at room temperature for 20-30 min. […] From TEM images sizes of exosomes were measured using Image J software.

MCF-7/Adr cells = experiment: Cellular uptake of dox; type: cell-based, human; conditions: DAC 50 ng/mL 24 h, then dox 1 μg/mL; 15 min to 12 h
Experimental: Drug resistant breast cancer cells were seeded in 24 well plates (1.2×10^6 cells/well). Post 48 h seeding, cells were pre-treated with DAC (50 ng/mL; 24 h); and then incubated with fixed concentration of dox (1 μg/mL) for indicated time points. Post drug incubation cell lysates in RIPA buffer was collected and lyophilized. Dox was extracted from lyophilized cell lysates using methanol as the solvent and analyzed by HPLC.

DNMT1 = biological target: T1, DNMT1 (Homo sapiens, UniProt P26358); experiment: Western blot of DNMT1 depletion in MCF-7/Adr cells; type: cell-based
T1 construct: Whole cell lysates were collected at the end of each time point and western blot was done for the expression of DNMT1; endogenous in cells; host or cells: MCF-7/Adr cells
T1 sequence (P26358 whole entry): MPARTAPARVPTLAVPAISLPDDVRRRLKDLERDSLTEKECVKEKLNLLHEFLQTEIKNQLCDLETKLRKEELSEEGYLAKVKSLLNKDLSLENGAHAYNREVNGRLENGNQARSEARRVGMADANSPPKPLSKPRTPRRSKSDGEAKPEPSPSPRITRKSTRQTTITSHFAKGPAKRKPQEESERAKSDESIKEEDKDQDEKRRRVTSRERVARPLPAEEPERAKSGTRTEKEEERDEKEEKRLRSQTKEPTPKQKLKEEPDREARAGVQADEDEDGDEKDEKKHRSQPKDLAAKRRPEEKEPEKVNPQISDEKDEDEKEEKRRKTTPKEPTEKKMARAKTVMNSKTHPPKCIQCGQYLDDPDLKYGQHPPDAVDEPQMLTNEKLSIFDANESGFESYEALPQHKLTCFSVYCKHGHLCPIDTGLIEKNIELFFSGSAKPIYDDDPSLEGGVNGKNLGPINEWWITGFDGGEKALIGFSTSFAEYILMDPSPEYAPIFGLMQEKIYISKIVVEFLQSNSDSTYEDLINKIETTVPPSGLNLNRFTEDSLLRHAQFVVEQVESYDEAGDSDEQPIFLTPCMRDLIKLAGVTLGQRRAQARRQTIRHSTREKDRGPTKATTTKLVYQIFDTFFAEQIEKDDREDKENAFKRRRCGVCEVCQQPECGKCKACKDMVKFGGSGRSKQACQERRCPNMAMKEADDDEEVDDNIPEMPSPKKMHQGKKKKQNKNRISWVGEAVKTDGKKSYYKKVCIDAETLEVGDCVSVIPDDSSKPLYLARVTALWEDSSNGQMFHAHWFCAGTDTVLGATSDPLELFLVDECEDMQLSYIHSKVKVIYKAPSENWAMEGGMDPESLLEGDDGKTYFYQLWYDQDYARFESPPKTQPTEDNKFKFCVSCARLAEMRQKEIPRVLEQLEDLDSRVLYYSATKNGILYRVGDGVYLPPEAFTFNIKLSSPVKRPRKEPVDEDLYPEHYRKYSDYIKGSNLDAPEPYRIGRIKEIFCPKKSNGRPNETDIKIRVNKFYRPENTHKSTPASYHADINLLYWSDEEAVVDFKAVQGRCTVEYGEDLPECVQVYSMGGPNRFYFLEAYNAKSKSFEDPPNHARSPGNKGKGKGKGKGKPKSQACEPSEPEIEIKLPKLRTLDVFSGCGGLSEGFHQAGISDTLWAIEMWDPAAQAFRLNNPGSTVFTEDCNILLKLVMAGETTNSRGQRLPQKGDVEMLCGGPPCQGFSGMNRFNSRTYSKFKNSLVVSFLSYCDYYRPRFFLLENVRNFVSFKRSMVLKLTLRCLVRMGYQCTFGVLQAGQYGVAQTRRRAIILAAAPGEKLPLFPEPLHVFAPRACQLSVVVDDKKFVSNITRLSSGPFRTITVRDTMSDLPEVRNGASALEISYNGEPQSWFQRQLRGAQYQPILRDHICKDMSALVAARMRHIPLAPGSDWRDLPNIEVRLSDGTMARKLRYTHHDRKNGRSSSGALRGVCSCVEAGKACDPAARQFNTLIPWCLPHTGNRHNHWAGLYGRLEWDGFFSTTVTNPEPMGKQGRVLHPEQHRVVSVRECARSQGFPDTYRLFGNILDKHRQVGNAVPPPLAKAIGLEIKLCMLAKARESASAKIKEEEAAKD
Experimental: Whole cell lysates, were made by lysing 1×10^6 treated or untreated cells, with RIPA buffer (Sigma-Aldrich, St. Louis, Mo.) containing 1× protease inhibitor cocktail (Calbiochem, Gibbstown, N.J.). Lysates were collected by centrifugation at 14,000 rpm for 15 min Protein concentration was determined by a bicinchoninic acid (BCA) assay kit (Pierce, Rockford, Ill.). 20-40 μg proteins of cell lysates were electrophoresed through 13.5% SD Spolyacrylamide gel or 4-15% linear pre-cast polyacrylamide gradient gel (Bio-Rad Laboratories, Hercules, Calif.) and transferred to polyvinylidene difluoride (PVDF) membranes (GE Healthcare Bio-sciences, corp., Piscataway, N.J.). The blots were probed for mouse monoclonal p21 (Cell Signaling Technology, Inc., Danvers, Mass.), mouse monoclonal DNMT1 (Abcam Inc., Cambridge, Mass.), and mouse monoclonal anti-actin (Sigma-Aldrich, St. Louis, Mo.). For detection of bound antibody, PVDF membrane was incubated with horse radish—tagged, goat anti-mouse antibody. After incubation membrane was washed with TBST, and stained with enhanced chemiluminescence (ECL) reagent or ECL plus reagent (GE Healthcare Bio-sciences, corp., Piscataway, N.J.) according to manufacturer protocol. […]

P-gp = experiment: Western blot of P-gp expression in MCF-7/Adr cells; type: cell-based, human
From the text: Proteins ([…]) from DAC treated or untreated cell lysates in RIPA buffer were probed for mouse monoclonal P-glycoprotein (calbiochem) and mouse anti-actin (Sigma-Aldrich, St. Louis, Mo.). Blotting and detection of the indicated proteins were done as per standard western blot protocol.

Nc1ncn([C@H]2C[C@H](O)[C@@H](CO)O2)c(=O)n1 [DAC, 5-aza-2′-deoxycytidine]
Hydrodynamic diameter of exosomes (MDA-MB 231 cells): 495 nm | PI of exosomes (MDA-MB 231 cells): 0.61 | Exosome size by transmission electron micrograph (MDA-MB 231 cells; in nm (unit assumed)): 97.2±8.0 | Uptake of dox in DAC pre-treated cells vs dox alone (MCF-7/Adr cells): higher increase in uptake of dox | Duration of DNMT1 depletion (DNMT1; 50 ng/mL): 24 h | DNMT1 levels vs untreated (DNMT1; 2, 3 and 5 days post treatment): No difference in DNMT1 levels | Decrease in P-gp protein expression vs untreated cells (P-gp; day 1): 45% | P-gp expression (P-gp; day 3): returned to normal levels
